For 3 compounds, TGI results are on record in PubChem BioAssay (NCI).

The structures appear in SMILES notation. Where “and” joins values, the source holds several entries; their conditions need not be identical. Equal entries are not always repeated.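 Following 48 hours of exposure in 96-well plates, responses at five concentrations were used to interpolate endpoints linearly. TGI: concentration producing complete growth inhibition.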 *1 amine or outer side, *2 acyl side, *3 side chain or, on linkers, in order; H or OH if unused. Where a SMILES comes first, the peptide text is derived from it. Bridges are numbered along the chain shown (N, C = ends). Roman numbers before positions name the chains, in order. [ ]: non-standard residue; d: D form. Actinocin(9to1) = Cc1c2oc3c(C)ccc(C(=O)[*:1])c3nc-2c(C(=O)[*:2])c(N)c1=O; NMeV = CN[CH](C(=O)O)C(C)C; Sar = CNCC(=O)O Where only a bound is given, the exact number is not on record here.

Test systems include SK-OV-3 ovarian; HCC-2998 colon; SW-620 colon; DU-145 prostate; T-47D breast; DMS 114 small cell lung; LXFL 529 NSCLC; SNB-78 CNS; KM20L2 colon; HOP-18 NSCLC; M19-MEL melanoma; DMS 273 small cell lung; SF-295 CNS.
Common to all, as to assay: inhibition of tumour cell growth, NCI panel, 48 h

As for `NC(Cc1ccc(OCc2ccccc2)cc1)C(=O)NC(Cc1ccccc1)C(=O)Oc1c(Cl)c(Cl)c(Cl)c(Cl)c1Cl` (configuration not stated), the TGI with SK-OV-3 ovarian was determined as 28.9 µM; in the assay on HCC-2998 colon, 34 µM; in the assay on SW-620 colon, 31.7 µM; in the assay with DU-145 prostate it was 27 µM; with T-47D breast it was 37.1 µM.

Turning to `O=C(NNC(=S)Nc1ccccc1)c1nsc2ccccc12`, the TGI with DMS 114 small cell lung is 70 µM; with LXFL 529 NSCLC, over 100 µM; in the assay with HCC-2998 colon, over 100 µM; in the assay on SNB-78 CNS it was over 100 µM; with SW-620 colon, over 100 µM; with KM20L2 colon, over 100 µM. The TGI in the assay with HOP-18 NSCLC was 41.4 µM; with M19-MEL melanoma it was over 100 µM; in the assay with DMS 273 small cell lung, 69.8 µM.

As for `Cc1c2oc3c(C)ccc(C(=O)NC4C(=O)NC(Cc5ccccc5)C(=O)N5CCCC5C(=O)N(C)CC(=O)N(C)C(C(C)C)C(=O)OC4C)c3nc-2c(C(=O)NC2C(=O)NC(Cc3ccccc3)C(=O)N3CCCC3C(=O)N(C)CC(=O)N(C)C(C(C)C)C(=O)OC2C)c(N)c1=O` (configuration not stated) (I: TFP[Sar][NMeV] / II: TFP[Sar][NMeV]; ester I:1-I:C, II:1-II:C; linker I:N-II:N via Actinocin(9to1); configuration not given here), the TGI in the assay on SK-OV-3 ovarian was 0.524 µM; with SF-295 CNS, 46.5 nM and 413 nM; in the assay on T-47D breast, 0.0647 µM.
